Source: PubChem BioAssay AID270 (DTP/NCI, 2004)
Where “and” joins values, the source holds several entries; their conditions need not be identical. Equal values may be shown once. Results filed as inconclusive are left out.

System: BDF1 mice, s.c. Lewis lung carcinoma, T/C %
Assay: NCI In Vivo Anticancer Drug Screen. Data for tumor model Lewis Lung Carcinoma (subcutaneous) in B6D2F1 (BDF1) mice
Details: endpoint: median survival time, higher = longer survival
Method in brief: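 Antitumor effect in vivo is scored from survival or tumor burden, reported as treated relative to vehicle controls.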

Question: What does the source list for `O=C(O)CC(NC(=O)CP(=O)(O)O)C(=O)O` (stereo unspecified)?
Answer: T/C (dose: 12.5 mg/kg/injection, schedule: Q01DX009 (ip), vehicle: saline): 120 % of control and 121 % of control; T/C (dose: 17.1 mg/kg/injection, schedule: Q01DX004 (ip), vehicle: saline): 120 % of control; T/C (dose: 18.8 mg/kg/injection, schedule: Q01DX004 (ip), vehicle: saline): 124 % of control; T/C (dose: 23.3 mg/kg/injection, schedule: Q01DX009 (ip), vehicle: saline): 121 % of control; T/C (dose: 25.0 mg/kg/injection, schedule: Q01DX004 (ip), vehicle: saline): 226 % of control; T/C (dose: 34.1 mg/kg/injection, schedule: Q01DX004 (ip), vehicle: saline): 178 % of control; T/C (dose: 37.5 mg/kg/injection, schedule: Q01DX004 (ip), vehicle: saline): 120 % of control; T/C (dose: 38.9 mg/kg/injection, schedule: Q01DX004 (ip), vehicle: saline): 123 % of control; T/C (dose: 38.9 mg/kg/injection, schedule: Q01DX009 (oral), vehicle: saline): 100 % of control; T/C (dose: 50.0 mg/kg/injection, schedule: Q01DX004 (ip), vehicle: saline): 225 % of control; T/C (dose: 50.0 mg/kg/injection, schedule: Q01DX005 (ip), vehicle: saline): 95 % of control; T/C (dose: 64.0 mg/kg/injection, schedule: Q01DX004 (ip), vehicle: saline): 108 % of control; T/C (dose: 64.8 mg/kg/injection, schedule: Q01DX004 (ip), vehicle: saline): 175 % of control and 197 % of control; T/C (dose: 64.8 mg/kg/injection, schedule: Q01DX009 (ip), vehicle: saline): 167 % of control; T/C (dose: 64.8 mg/kg/injection, schedule: Q01DX009 (oral), vehicle: saline): 103 % of control; T/C (dose: 68.3 mg/kg/injection, schedule: Q01DX004 (ip), vehicle: saline): 247 % of control; T/C (dose: 68.3 mg/kg/injection, schedule: Q01DX004 (ip), vehicle: suspension in saline): 112 % of control; T/C (dose: 70.0 mg/kg/injection, schedule: Q01DX009 (oral), vehicle: saline): 122 % of control; T/C (dose: 75.0 mg/kg/injection, schedule: Q01DX004 (ip), vehicle: saline): 247 % of control; T/C (dose: 100.0 mg/kg/injection, schedule: Q01DX004 (ip), vehicle: saline): 226 % of control; T/C (dose: 108.0 mg/kg/injection, schedule: Q01DX004 (ip), vehicle: saline): 197 % of control and 299 % of control; T/C (dose: 108.0 mg/kg/injection, schedule: Q01DX009 (ip), vehicle: saline): 222 % of control; T/C (dose: 108.0 mg/kg/injection, schedule: Q01DX009 (oral), vehicle: saline): 107 % of control; T/C (dose: 108.0 mg/kg/injection, schedule: Q04DX004 (ip), vehicle: saline): 118 % of control; T/C (dose: 110.0 mg/kg/injection, schedule: Q01DX009 (oral), vehicle: saline): 122 % of control; T/C (dose: 116.0 mg/kg/injection, schedule: Q01DX009 (ip), vehicle: saline): 181 % of control; T/C (dose: 125.0 mg/kg/injection, schedule: Q01DX009 (ip), vehicle: saline): 176 % of control and 194 % of control; T/C (dose: 133.0 mg/kg/injection, schedule: Q01DX007 (other), vehicle: saline): 206 % of control; T/C (dose: 133.0 mg/kg/injection, schedule: Q01DX007 (sc), vehicle: saline): 206 % of control; T/C (dose: 136.0 mg/kg/injection, schedule: Q01DX004 (ip), vehicle: suspension in saline): 204 % of control; T/C (dose: 136.5 mg/kg/injection, schedule: Q01DX004 (ip), vehicle: saline): 248 % of control; T/C (dose: 140.0 mg/kg/injection, schedule: Q01DX009 (ip), vehicle: saline): 166 % of control; T/C (dose: 150.0 mg/kg/injection, schedule: Q01DX004 (ip), vehicle: saline): 248 % of control; T/C (dose: 150.0 mg/kg/injection, schedule: Q01DX009 (ip), vehicle: saline): 186 % of control; T/C (dose: 160.0 mg/kg/injection, schedule: Q01DX009 (oral), vehicle: saline): 119 % of control; T/C (dose: 167.0 mg/kg/injection, schedule: Q01DX010 (ip), vehicle: saline): 152 % of control; T/C (dose: 175.0 mg/kg/injection, schedule: Q01DX009 (ip), vehicle: saline): 163 % of control; T/C (dose: 178.0 mg/kg/injection, schedule: Q01DX009 (ip), vehicle: saline): 178 % of control and 237 % of control; T/C (dose: 180.0 mg/kg/injection, schedule: Q01DX009 (ip), vehicle: saline): 159 % of control and 222 % of control; T/C (dose: 180.0 mg/kg/injection, schedule: Q01DX009 (oral), vehicle: saline): 102 % of control; T/C (dose: 180.0 mg/kg/injection, schedule: Q04DX004 (ip), vehicle: saline): 178 % of control; T/C (dose: 200.0 mg/kg/injection, schedule: Q01DX004 (ip), vehicle: saline): 226 % of control; T/C (dose: 200.0 mg/kg/injection, schedule: Q01DX005 (ip), vehicle: saline): 115 % of control; T/C (dose: 200.0 mg/kg/injection, schedule: Q01DX007 (other), vehicle: saline): 206 % of control; T/C (dose: 200.0 mg/kg/injection, schedule: Q01DX007 (sc), vehicle: saline): 206 % of control; T/C (dose: 200.0 mg/kg/injection, schedule: Q01DX009 (ip), vehicle: saline): 225 % of control; T/C (dose: 240.0 mg/kg/injection, schedule: Q04DX003 (ip), vehicle: saline): 150 % of control; T/C (dose: 250.0 mg/kg/injection, schedule: Q01DX010 (ip), vehicle: saline): 158 % of control; T/C (dose: 265.0 mg/kg/injection, schedule: Q01DX009 (ip), vehicle: saline): 195 % of control; T/C (dose: 273.0 mg/kg/injection, schedule: Q01DX004 (ip), vehicle: saline): 195 % of control; T/C (dose: 273.0 mg/kg/injection, schedule: Q01DX004 (ip), vehicle: suspension in saline): 177 % of control; T/C (dose: 300.0 mg/kg/injection, schedule: Q01DX007 (sc), vehicle: saline): 198 % of control; T/C (dose: 300.0 mg/kg/injection, schedule: Q04DX004 (ip), vehicle: saline): 169 % of control; T/C (dose: 343.0 mg/kg/injection, schedule: Q04DX003 (ip), vehicle: saline): 153 % of control and 186 % of control (2×); T/C (dose: 375.0 mg/kg/injection, schedule: Q01DX010 (ip), vehicle: saline): 95 % of control; T/C (dose: 400.0 mg/kg/injection, schedule: Q01DX004 (ip), vehicle: saline): 224 % of control; T/C (dose: 490.0 mg/kg/injection, schedule: Q04DX003 (ip), vehicle: saline): 150 % of control and 186 % of control and 193 % of control; T/C (dose: 500.0 mg/kg/injection, schedule: Q04DX004 (ip), vehicle: saline): 176 % of control; T/C (dose: 833.0 mg/kg/injection, schedule: Q04DX004 (ip), vehicle: saline): 64 % of control; T/C (dose: 50.0 ml/mouse/injection, schedule: Q01DX005 (ip), vehicle: saline): 94 % of control; T/C (dose: 200.0 ml/mouse/injection, schedule: Q01DX005 (ip), vehicle: saline): 117 % of control

Question: For `O=C1CC(c2ccc(O)cc2)CC(=O)C1C(C1CC=CCC1)N(CCCl)CCCl` (stereo unspecified), which T/C (dose: 25.0 mg/kg/injection, schedule: Q01DX009 (ip), vehicle: Klucel (hydroxypropylcellulose) (HPC)) is on record?
Answer: The T/C was 122 % of control.

Question: And the T/C (dose: 50.0 mg/kg/injection, schedule: Q01DX009 (ip), vehicle: Klucel (hydroxypropylcellulose) (HPC))?
Answer: Its T/C is 123 % of control.

Question: What about the T/C (dose: 100.0 mg/kg/injection, schedule: Q01DX009 (ip), vehicle: Klucel (hydroxypropylcellulose) (HPC)) of the same compound?
Answer: The T/C was 115 % of control.

Question: What about the T/C (dose: 200.0 mg/kg/injection, schedule: Q01DX009 (ip), vehicle: Klucel (hydroxypropylcellulose) (HPC)) of the same compound?
Answer: The T/C was 111 % of control.

Question: And the T/C (dose: 400.0 mg/kg/injection, schedule: Q01DX009 (ip), vehicle: Klucel (hydroxypropylcellulose) (HPC))?
Answer: Its T/C is 98 % of control.
